In patent EP2650284A1, “Heterocyclic derivatives as metabotropic glutamate receptor modulators” (Merz Pharma GmbH & Co. KGaA, priority 2012, dated 2013):
Where two headings read alike, the source gives them in different places.

How the values were obtained:
[1] = biological target: T1, mGluR5 receptors (Rattus norvegicus, UniProt P31424); assay: Cytosolic calcium studies with astrocytes (FLIPR), functional assay of mGluR5 receptors; type: cell-based
T1 construct: Primary astrocyte cultures are prepared from cortices of newborn rats; endogenous in cells; host or cells: primary cortical astrocytes from Sprague-Dawley rat pups (2-4 d old)
Summary of the method: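 Rat cortical primary astrocytes at 14-15 DIV, loaded with Ca-sensitive dye for 2 h at RT, pH 7.3 buffer; FLIPR fluorescence after L-quisqualate (100 nM), antagonists pre-incubated 10 min. PAMs: quisqualate curves ± 10 µM modulator, or modulator curves at fixed 10-30 nM quisqualate. Max-min responses as % control, logistic fit.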

[2] = biological target: T2, human metabotropic glutamate receptor mGluR5 (Homo sapiens, UniProt P41594); assay: Cytosolic calcium studies with stably transfected cells (h5CHO), functional assay of mGluR5 receptors; type: cell-based; conditions: for EC50: positive modulators, h5CHO cells preincubated with modulator, stimulated by an EC20 concentration of L-glutamate, read-out: hEC50
T2 construct: expressed in transfected cells; host or cells: CHO-K1 (h5CHO), IPTG-inducible
Summary of the method: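 IPTG-induced h5CHO (CHO-K1 expressing human mGluR5) loaded with calcium dye; compounds (0.5% DMSO) added 5 min before agonist. NAM IC50 against L-quisqualate at ~EC80; PAM EC50 with EC20 L-glutamate. FLIPR fluorescence, max-minus-min, % of maximal response, logistic fit.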

[3] = biological target: T3, mGluR5 binding site (Rattus norvegicus, UniProt P31424); assay: [3H]-M-MPEP displacement studies on rat cortical membranes; conditions: Table A3, [3H]-M-MPEP 2 nM, 4°C for 1 h, median, read-out: Ki (MMPEP)
T3 construct: from tissue; host or cells: cortex of adult male Sprague-Dawley rats, membrane preparation
Experimental: Tissue preparation is performed according to Foster & Wong (Br. J. Pharmacol., 1987, 91, 403-409) with some modifications. Anaesthetised male Sprague-Dawley rats (200-250 g, Janvier, Le Genest-Isle, France) are decapitated and their brains are removed rapidly. The cortex is dissected out and processed as described by Parsons, et al. (J. Pharmacol. Exp. Ther., 1997, 283(3): 1264-1275). For isolation of the cell membranes, the cortices are homogenized in 20 volumes of ice-cold 0.32 M sucrose (Sigma-Aldrich, Taufkirchen, Germany) using a glass-Teflon homogenizer. The homogenate is centrifuged at 1000 x g for 10 minutes, the pellet is discarded and the supernatant centrifuged at 20,000 x g for 20 minutes. The resulting pellet is resuspended in 20 volumes of distilled water and centrifuged for 20 minutes at 8000 x g. The supernatant and the buffy coat are then centrifuged six times (48,000 x g for 20 minutes) in the presence of 5 mM Tris-HCl, pH 7.5. All centrifugation steps are carried out at 4°C. After resuspension in 5 volumes of 5 mM Tris-HCl, pH 7.5, the membrane suspension is frozen rapidly at -80°C.
On the day of assay, the membrane suspensions are thawed, centrifuged (48,000 x g for 20 minutes) and then resuspended in 50 mM Tris-HCl, pH 7.5 (assay buffer). The amount of protein in the final membrane preparation is determined according to the method of Lowry, et al. (J. Biol. Chem., 1951, 193, 256-275). The final concentration used for our studies is 400 µg / ml.
The Tecan robotic system designed for binding assays is loaded with the membrane solution, a 96 well stock plate containing the solutions for bound control (buffer/DMSO 10%), unlabeled MPEP (10 µM) for evaluation of non-specific binding, all compounds to be tested (at 20-fold concentrations), various empty 96-well plates for dilutions and the final assay plates, as well as a 96-well plate filled with the radioligand.
Before performing displacement studies, saturation experiments are performed to determine the equilibrium dissociation constant (Kd, Cheng and Prussoff, Biochem. Pharmacol., 1973, 22: 3099-3108) of [^3H]-M-MPEP, which is a parameter for the affinity of the radioligand to the binding site. On the basis of the saturation experiments, a final [^3H]-M-MPEP concentration of 2 nM was selected.
Firstly, the assay plates are loaded with membrane solution and are shaken at 4°C. The mother plates were then prepared by pipetting the compounds (n = 5) into assay buffer/10% DMSO to obtain the desired final concentrations. After transferring radioligand into the assay plates, the compounds are added (including the non-specific binding control containing MPEP). The final DMSO concentration is always 1 %. The assay plates are incubated and shaken at 4°C for 1 h, before the mixture is exhausted as rapidly as possible via a vacuum manifold using the Multiscreen HTS glass fibre (type B) high flow filter plates (Millipore, Schwalbach, Germany) under a constant vacuum of 450 mbar. The membranes are washed four times with cold assay buffer (100 µL). 50 µL of Ultima Gold scintillation cocktail (PerkinElmer) is added to the wet filter plates and incubated at rt overnight before counting the disintegration per minutes using a liquid scintillation counter (MicroBeta, PerkinElmer).
For the evaluation of the test compound binding affinity to the mGluR5 binding site and its potency to displace [^3H]-M-MPEP, the measured radioactivity of the radioligand alone was set as 100% bound control and the non-specific binding of the radioligand represented the 0% control. The residual radioactivity after displacement of the test compound was then corrected with respect to the set controls. Data are given as median IC50 and Ki, respectively.

[4] = Table A1, left shift of quisqualate EC50 in the presence and absence of 10 µM modulator
[5] = Table A1, left shift of agonist EC50, dose response curves in the presence of 10 µM modulator or vehicle, h5CHO cells
[6] = Table A1, positive modulators, fixed concentration of quisqualate (normally 10-30 nM), read-out: rEC50
[7] = Table A3 (SAMs / very weak PAMs), agonist EC50 shift with 10 µM modulator or vehicle, h5CHO cells

T1 sequence (P31424 21-1203): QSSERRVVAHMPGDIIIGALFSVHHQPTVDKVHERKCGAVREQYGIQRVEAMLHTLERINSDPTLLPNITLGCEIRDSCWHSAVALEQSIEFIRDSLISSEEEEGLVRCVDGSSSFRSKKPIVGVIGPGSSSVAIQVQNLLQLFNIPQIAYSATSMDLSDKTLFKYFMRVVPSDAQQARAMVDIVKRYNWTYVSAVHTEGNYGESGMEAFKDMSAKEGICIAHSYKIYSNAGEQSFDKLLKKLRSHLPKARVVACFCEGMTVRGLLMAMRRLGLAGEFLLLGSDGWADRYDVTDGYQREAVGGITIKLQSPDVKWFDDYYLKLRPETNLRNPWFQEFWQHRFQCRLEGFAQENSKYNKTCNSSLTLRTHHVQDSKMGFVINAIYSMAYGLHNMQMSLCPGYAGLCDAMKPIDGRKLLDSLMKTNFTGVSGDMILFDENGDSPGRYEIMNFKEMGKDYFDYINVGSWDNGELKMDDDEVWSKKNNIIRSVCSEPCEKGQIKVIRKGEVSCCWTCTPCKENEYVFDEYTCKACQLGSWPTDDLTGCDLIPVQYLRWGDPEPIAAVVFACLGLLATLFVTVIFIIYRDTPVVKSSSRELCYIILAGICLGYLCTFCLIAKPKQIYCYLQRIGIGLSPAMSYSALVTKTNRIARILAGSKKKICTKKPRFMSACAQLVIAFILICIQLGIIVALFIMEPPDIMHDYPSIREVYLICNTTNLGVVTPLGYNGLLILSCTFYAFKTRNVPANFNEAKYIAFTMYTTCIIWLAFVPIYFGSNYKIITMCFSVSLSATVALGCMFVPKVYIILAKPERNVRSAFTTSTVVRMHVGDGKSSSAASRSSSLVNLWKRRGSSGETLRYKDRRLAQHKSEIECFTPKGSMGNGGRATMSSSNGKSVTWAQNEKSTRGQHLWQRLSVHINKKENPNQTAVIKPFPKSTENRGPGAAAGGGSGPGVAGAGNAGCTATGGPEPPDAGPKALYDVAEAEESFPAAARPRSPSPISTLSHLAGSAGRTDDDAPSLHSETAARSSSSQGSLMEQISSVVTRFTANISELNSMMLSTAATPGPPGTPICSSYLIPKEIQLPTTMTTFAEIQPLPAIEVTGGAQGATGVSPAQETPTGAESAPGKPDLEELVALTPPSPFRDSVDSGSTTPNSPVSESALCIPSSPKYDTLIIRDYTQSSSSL
T2 sequence (P41594 21-1212): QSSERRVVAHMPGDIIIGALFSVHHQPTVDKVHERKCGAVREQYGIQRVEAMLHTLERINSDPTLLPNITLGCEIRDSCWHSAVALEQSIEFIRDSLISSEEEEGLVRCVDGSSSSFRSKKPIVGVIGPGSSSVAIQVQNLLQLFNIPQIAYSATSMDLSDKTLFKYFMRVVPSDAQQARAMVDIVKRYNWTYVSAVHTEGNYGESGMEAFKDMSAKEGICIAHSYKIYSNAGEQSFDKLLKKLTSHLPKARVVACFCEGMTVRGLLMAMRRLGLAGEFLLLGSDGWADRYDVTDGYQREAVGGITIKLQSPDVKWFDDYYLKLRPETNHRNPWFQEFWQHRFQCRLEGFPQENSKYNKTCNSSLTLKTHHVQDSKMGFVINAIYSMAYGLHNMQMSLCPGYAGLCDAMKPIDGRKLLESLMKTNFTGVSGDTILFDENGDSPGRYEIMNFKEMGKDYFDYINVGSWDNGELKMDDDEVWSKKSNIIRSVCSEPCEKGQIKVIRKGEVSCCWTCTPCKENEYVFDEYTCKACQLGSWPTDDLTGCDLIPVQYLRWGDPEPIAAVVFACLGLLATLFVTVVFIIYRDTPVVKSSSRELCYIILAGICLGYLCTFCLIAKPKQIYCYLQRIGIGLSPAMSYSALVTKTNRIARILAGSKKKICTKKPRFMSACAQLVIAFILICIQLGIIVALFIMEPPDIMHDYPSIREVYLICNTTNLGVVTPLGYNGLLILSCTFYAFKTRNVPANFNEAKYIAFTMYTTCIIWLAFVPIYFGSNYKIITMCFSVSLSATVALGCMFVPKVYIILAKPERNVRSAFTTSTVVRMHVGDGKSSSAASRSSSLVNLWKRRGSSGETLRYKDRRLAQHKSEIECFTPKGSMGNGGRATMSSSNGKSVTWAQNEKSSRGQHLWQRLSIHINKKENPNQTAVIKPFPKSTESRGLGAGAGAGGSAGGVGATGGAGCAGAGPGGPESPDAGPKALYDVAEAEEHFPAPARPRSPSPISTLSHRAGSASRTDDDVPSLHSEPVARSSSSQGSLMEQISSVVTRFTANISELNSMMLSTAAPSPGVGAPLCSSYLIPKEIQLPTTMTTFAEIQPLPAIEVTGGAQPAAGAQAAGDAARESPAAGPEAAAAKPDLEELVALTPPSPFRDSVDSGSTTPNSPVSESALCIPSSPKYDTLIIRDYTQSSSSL
T3 sequence (P31424 21-1203): as the sequence (P31424 21-1203) above

O=C(N1CCCCC1)N1CCc2ncc(C#Cc3ccccc3)cc2C1 [Example 50, (3-(Phenylethynyl)-7,8-dihydro-1,6-naphthyridin-6(5H)-yl)(piperidin-1-yl)methanone]
r left shift [1, 4]: 1.9-fold | h left shift [2, 5]: 2.1-fold | EC50 ([2]; Table A1): 843 nM

N#Cc1cccc(C#Cc2cnc3c(c2)CN(C(=O)N2CCCCC2)CC3)c1 [Example 51, 3-((6-(Piperidine-1-carbonyl)-5,6,7,8-tetrahydro-1,6-naphthyridin-3-yl)ethynyl)benzonitrile]
IC50 ([1]; Table A2, pre-incubated 10 minutes before L-quisqualate (100 nM), read-out: rIC50): 2330 nM | IC50 ([2]; Table A2, negative modulation, compounds added 5 minutes before L-quisqualic acid (~80% of the maximal signal), h5CHO cells, read-out: hIC50): 740 nM

CN(C)S(=O)(=O)N1CCc2ncc(C#Cc3ccccc3)cc2C1 [Example 52, N,N-Dimethyl-3-(phenylethynyl)-7,8-dihydro-1,6-naphthyridine-6(5H)-sulfonamide]
r left shift [1, 4]: 1.8-fold | EC50 [1, 6]: 83.1 nM | h left shift [2, 5]: 2.0-fold | EC50 ([2]; Table A1): 240 nM

O=S(=O)(N1CCCC1)N1CCc2ncc(C#Cc3ccccc3)cc2C1 [Example 53, 3-(Phenylethynyl)-6-(pyrrolidin-1-ylsulfonyl)-5,6,7,8-tetrahydro-1,6-naphthyridine]
r left shift [1, 4]: 2.8-fold | EC50 [1, 6]: 152 nM | h left shift [2, 5]: 1.6-fold

O=S(=O)(N1CCCCC1)N1CCc2ncc(C#Cc3ccccc3)cc2C1 [Example 54, 3-(Phenylethynyl)-6-(piperidin-1-ylsulfonyl)-5,6,7,8-tetrahydro-1,6-naphthyridine]
r left shift [1, 4]: 2.5-fold | EC50 [1, 6]: 472 nM | h left shift [2, 5]: 2.0-fold | EC50 ([2]; Table A1): 726 nM

O=S(=O)(N1CCOCC1)N1CCc2ncc(C#Cc3ccccc3)cc2C1 [Example 55, 4-((3-(Phenylethynyl)-7,8-dihydro-1,6-naphthyridin-6(5H)-yl)sulfonyl)morpholine]
r left shift [1, 4]: 3.8-fold | EC50 [1, 6]: 325 nM | h left shift [2, 5]: 2.7-fold | EC50 ([2]; Table A1): 440 nM

O=S(=O)(N1CCCCCC1)N1CCc2ncc(C#Cc3ccccc3)cc2C1 [Example 56, 6-(Azepan-1-ylsulfonyl)-3-(phenylethynyl)-5,6,7,8-tetrahydro-1,6-naphthyridine]
r left shift [1, 4]: 3.3-fold | EC50 [1, 6]: 296 nM | h left shift [2, 5]: 3.0-fold | EC50 ([2]; Table A1): 499 nM

COC(=O)N1CC[C@H]2c3ncc(C#Cc4ccccc4)cc3CC[C@H]21 [Example 71, (6aR,9aR)-Methyl 3-(phenylethynyl)-6,6a,9,9a-tetrahydro-5H-pyrrolo[2,3-h]quinoline-7(8H)-carboxylate]
r left shift [1, 4]: 1.3-fold | EC50 [1, 6]: 32.7 nM | h left shift [2, 5]: 2.2-fold | EC50 ([2]; Table A1): 241 nM

COC(=O)N1CC[C@H]2c3ncc(C#Cc4cccc(F)c4)cc3CC[C@H]21 [Example 72, (6aR,9aR)-Methyl 3-((3-fluorophenyl)ethynyl)-6,6a,9,9a-tetrahydro-5H-pyrrolo[2,3-h]quinoline-7(8H)-carboxylate]
r left shift [1, 4]: 1.3-fold | EC50 [1, 6]: 27.3 nM | h left shift [2, 5]: 1.7-fold

CCOC(=O)C(=O)N1CCc2ncc(C#Cc3ccccc3)cc2C1 [Example 77, Ethyl 2-oxo-2-(3-(phenylethynyl)-7,8-dihydro-1,6-naphthyridin-6(5H)-yl)acetate]
r left shift [1, 4]: 2.8-fold | EC50 [1, 6]: 22.1 nM | h left shift [2, 5]: 2.8-fold | EC50 ([2]; Table A1): 25.4 nM

CN1CCN(S(=O)(=O)N2CCc3ncc(C#Cc4ccccc4)cc3C2)CC1 [Example 78, 6-((4-Methylpiperazin-1-yl)sulfonyl)-3-(phenylethynyl)-5,6,7,8-tetrahydro-1,6-naphthyridine]
EC50 [1, 6]: 2050 nM | h left shift [2, 5]: 1.7-fold | EC50 ([2]; Table A1): 2020 nM

CC(C)S(=O)(=O)N1CCc2ncc(C#Cc3ccccc3)cc2C1 [Example 81, 6-(Isopropylsulfonyl)-3-(phenylethynyl)-5,6,7,8-tetrahydro-1,6-naphthyridine]
r left shift ([1]; Table A3 (SAMs / very weak PAMs), quisqualate EC50 shift with 10 µM modulator): 1.5-fold | EC50 ([1]; Table A3, given in brackets where Ki is n.d., read-out: r EC50): 51.1 nM | h left shift [2, 7]: 1.5-fold

(rac)-cis-Methyl 3-((3-fluorophenyl)ethynyl)-6a,7,9,9a-tetrahydro-5H-pyrrolo[3,4-h]quinoline-8(6H)-carboxylate [Example 32]
Ki [3]: 49.3 nM | h left shift [2, 7]: 0.9-fold
